How the values were obtained:
[1] = Pharmacokinetics of FOLFIRI components with and without veliparib (relative bioavailability); conditions: for Cmax: human, plasma, intravenous, central value; for 90% CIs for the relative bioavailability (Cmax and AUCt): presence (cycle 1 day 15) vs absence (cycle 1 day 1) of veliparib
Description: Treatment-emergent adverse events (TEAEs) were assessed from the time of study drug administration until 30 days following discontinuation of study drug. TEAEs were assessed according to the National Cancer Institute Common Terminology Criteria for Adverse Events version 4.0. In dose-escalation cohorts, blood samples were collected on day 15 of cycle 1 for veliparib PK, and on days 1 and 15 of cycle 1 for PK assessment of the FOLFIRI components irinotecan, SN-38, folinic acid (leucovorin), and 5-FU. Exploratory efficacy end points included objective response rate (ORR), time to disease progression (TTP), duration of overall response (DOR), and ECOG performance status. Objective response rate included confirmed complete response (CR) and partial response (PR). Objective response rate evaluation was based on Response Evaluation Criteria in Solid Tumours version 1.1. Objective response rate was calculated for all patients with one or more measurable lesions at baseline. Time to disease progression was defined as the number of days from the date the patient started study drug to the date of the patient’s disease progression. Duration of overall response was defined as the number of days from the day criteria were met for CR or PR (whichever was recorded first) to the date that PD was objectively documented. If a patient was still responding, the patient’s data were censored at the date of the last study visit at which a tumour assessment was performed. Analyses of change and/or percentage change from baseline for tumour size were performed for each scheduled post-baseline visit and for the final visit. ECOG performance status was assessed at all visits, with descriptive statistics summarised for each assessment. In addition, a mean change from baseline to each assessment time was summarised.
The sample size was based on clinical justification. No specific statistical hypothesis tests were planned, with descriptive statistics used for the analysis of safety, PK, and tumour response data. The study population for all safety and preliminary efficacy analyses included patients who received one or more doses of study medication. Data from parts 1–3 of the dose-escalation cohort were combined for assessment of the effect of veliparib on the PK of irinotecan, SN-38, and folinic acid. Linear mixed effects models were performed on natural logarithmically transformed maximum plasma concentration (Cmax) and area under the plasma or serum concentration-time curve (AUC) to compare exposure of irinotecan, SN-38, and folinic acid with and without the administration of veliparib. Point estimates and the corresponding 90% confidence intervals (CIs) of the ratio of central values with and without veliparib administration were calculated.

[2] = test system: platinum-sensitive relapsed ovarian cancer and a BRCA1/2 mutation; parameters: method as in PMID 28754483; conditions: maintenance treatment, vs placebo; cited from earlier work
[3] = test system: patients with advanced solid tumours; conditions: human, in vivo
Source text: This phase 1 open-label, multicentre, dose-escalation, and safety expansion study evaluated veliparib in combination with bimonthly FOLFIRI in patients with advanced solid tumours. The primary objectives were to determine the maximum tolerated dose (MTD) and establish the recommended phase 2 dose (RP2D) of the combination therapy. Secondary objectives were to assess the safety and tolerability, PK profile, and exploratory efficacy of the combination for each of the FOLFIRI regimens. Patients received veliparib and bimonthly FOLFIRI in 28-day cycles. Veliparib was administered on days 15–19 in cycle 1 and on days 1–5 and 15–19 in subsequent cycles (Fig. 1). Patients with stable disease or better status could continue veliparib and bimonthly FOLFIRI at the investigator’s discretion until progressive disease (PD), unacceptable toxicity, or FOLFIRI discontinuation. The trial was registered with the ClinicalTrials.gov registry (NCT01123876) and was approved by appropriate independent ethics committees/institutional review boards prior to initiation. The study was performed in accordance with the 1964 Declaration of Helsinki and its later amendments. Written informed consent was obtained from all patients before study enrollment.
Dose escalation occurred in three parts to evaluate the MTD/RP2D of three different bimonthly FOLFIRI regimens in combination with veliparib (Fig. 1). A minimum of three patients per dose level were included for dose-toxicity modeling. In part 1, dose escalation began with veliparib twice daily (BID) on days 15–19 of cycle 1 (to allow the determination of single-agent PK for irinotecan, the active metabolite of irinotecan (SN-38), folinic acid, and 5-FU on cycle 1 day 1). In parts 2 and 3, dose escalation began with veliparib BID on day 15 of cycle 1. The differences in the dosing schedules of parts 1, 2, and 3 relate to dosing of irinotecan and 5-FU, and are detailed in Fig. 1. In all parts, veliparib continued to be administered on days 1–5 and 15–19 of each subsequent 28-day cycle. […]

[4] = FOLFIRI + veliparib, cycle 1 day 15

SMILES	AUCt, central value, test [1, 4] [ng·h/mL]	Cmax, central value, test [1, 4] [ng/mL]	AUCt, central value, reference ([1]; FOLFIRI alone, cycle 1 day 1) [ng·h/mL]	Cmax, central value, reference ([1]; FOLFIRI alone, cycle 1 day 1) [ng/mL]	90% CIs for the relative bioavailability (Cmax and AUCt) [1]	further results
CCc1c2c(nc3ccc(OC(=O)N4CCC(N5CCCCC5)CC4)cc13)-c1cc3c(c(=O)n1C2)COC(=O)[C@]3(O)CC [Irinotecan, irinotecan]					within the pre-established boundaries of 0.80 to 1.25	AUC0–24, central value, reference ([1]; FOLFIRI alone, cycle 1 day 1): 10620 ng·h/mL; Cmax ([1]; reference, FOLFIRI alone, cycle 1 day 1): 1780 ng/mL; Cmax ([1]; test, FOLFIRI + veliparib, cycle 1 day 15): 1790 ng/mL
CCc1c2c(nc3ccc(O)cc13)-c1cc3c(c(=O)n1C2)COC(=O)[C@]3(O)CC [SN-38]	157.8	17.65	157.9	18.31	within the pre-established boundaries of 0.80 to 1.25	
O=C(c1cc(Cc2n[nH]c(=O)c3ccccc23)ccc1F)N1CCN(C(=O)C2CC2)CC1 [olaparib]						Median PFS [2]: 19.1 months
O=c1[nH]cc(F)c(=O)[nH]1 [5-FU, 5-fluorouracil]						Tolerability of 400 mg/m^2 bolus 5-FU dose [3]: not tolerated; Median ratio of 5-FU concentrations, cycle 1 day 15 to cycle 1 day 1 ([1]; 2 h after the start of infusion): 1.03; Median ratio of 5-FU concentrations, cycle 1 day 15 to cycle 1 day 1 ([1]; 24 h after the start of infusion): 0.95

Continued, in another order:

AUCt, central value, test [1, 4] [ng·h/mL]	Cmax, central value, test [1, 4] [ng/mL]	AUCt, central value, reference ([1]; FOLFIRI alone, cycle 1 day 1) [ng·h/mL]	Cmax, central value, reference ([1]; FOLFIRI alone, cycle 1 day 1) [ng/mL]	SMILES	90% CIs for the relative bioavailability (Cmax and AUCt) [1]	further results
28470	13270	29360	14220	Nc1nc(=O)c2c([nH]1)NC[C@H](CNc1ccc(C(=O)N[C@@H](CCC(=O)O)C(=O)O)cc1)N2C=O [(S)-Leucovorin, levoleucovorin]	within the pre-established boundaries of 0.80 to 1.25	
172200	39860	180400	41870	Nc1nc2c(c(=O)[nH]1)N(C=O)[C@H](CNc1ccc(C(=O)N[C@@H](CCC(=O)O)C(=O)O)cc1)CN2 [(R)-Leucovorin, dextroleucovorin]	within the pre-established boundaries of 0.80 to 1.25	

From paper PMC5933261, “A phase 1 dose-escalation study of veliparib with bimonthly FOLFIRI in patients with advanced solid tumours” (British Journal of Cancer, 2018)
